Legend:
[1] = system: CL97 (gefitinib resistance cell line) xenograft; experiment: CL97 xenograft tumor study; assay type: in vivo, NOD/SCID mice; conditions: oral; Gefitinib 100 mg/kg 2 times/week; C1 1 g/kg, C2 600 mg/kg, C3 150 mg/kg 5 days/week; 10 weeks
Experimental: Human lung cancer cell line CL97 (obtained from Dr. Pan-Chyr Yang's lab, 1 million cells/injection) were subcutaneously injected into the right flank of NOD/SCID mice (female, 4-6 weeks old) and allowed one-two week for tumor growth. […] Over the period of 10 weeks, tumorigenesis in both groups was measured using a caliper on a weekly basis. The change in tumor size was expressed as in fold change and plotted over time.

HUVEC cells = experiment: Tube formation assay; assay type: cell-based; conditions: sorafenib 10 μM (positive control)
Experimental: Tube formation assay was used to test the inhibitory effect of Composition 3 (400 and 600 μg/ml) in HUVEC cells. Treatment of sorafenib was used as a positive control. […] All samples were assayed in triplicate. Four images were taken per well of a 96-well plate at 10×. The data were quantitated by calculating the pentagonal ring or hexagonal ring loop numbers of each well and used solvent control (DMSO) as 100%.
In addition to the study of the immune modulator role of Composition 3, whether Composition 3 might affect angiogenesis was also studied. To investigate the anti-angiogenesis ability of Composition 3, the effect of Composition 3 on HUVEC cells tube formation was first tested. In the normal condition, HUVEC cells will arrange into pentagon or hexagon shape in matrigel to form a tube.

Row | Structure (SMILES) | Tumor reduction (%) [1] | number of complete pentagon or hexagon tube (HUVEC cells)
1 | COc1cc2ncnc(Nc3ccc(F)c(Cl)c3)c2cc1OCCCN1CCOCC1 [Gefitinib] | 8.8% | –
2 | CNC(=O)c1cc(Oc2ccc(NC(=O)Nc3ccc(Cl)c(C(F)(F)F)c3)cc2)ccn1 [sorafenib] | – | significant decreased

Reference: patent publication US20210205389A1, “METHODS AND COMPOSITIONS FOR TREATING NON-SMALL CELL LUNG CANCER” (Chang Gung Medical Foundation Keelung Chang Gung Memorial …, priority 2015, published 2021)
